Like-named read-outs stand apart in the source and are kept apart here. Peptide text beside a SMILES is read from it.
Experiments:
μ opioid receptors (GPI) = assay: Guinea pig isolated ileum (GPI) assay, opioid agonist;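 for all read-outs here: inhibition of electrically evoked contractions (0.1 Hz, 0.4 msec, supramaximal voltage) in organ baths at 37 °C, contraction height 3 min after each cumulative dose versus the 1 min before dosing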; conditions: for Opioid agonist GPI (μ), % inh. / GPI/LMMP opioid(mu) agonist, % at 1 uM: at 1 uM; for Opioid agonist GPI (μ), % inh.: no antagonist activity observed at the tested concentration; for agonist effect in the functional assay using GPI: at the concentration of 1 μM, words
Protocol: Guinea Pig Isolated Ileum Assay. […] These tissues were tied to gold chains with suture silk and mounted between platinum wire electrodes in 20 mL organ baths at a tension of 1 g and bathed in oxygenated (95:5 O2:CO2) Kreb's bicarbonate buffer at 37° C. and stimulated electrically (0.1 Hz, 0.4 msec duration) at supramaximal voltage. Following an equilibration period, compounds were added cumulatively to the bath in volumes of 14-60 μL until maximum inhibition was reached. A baseline PL-017 was constructed to determine tissue integrity and allow calculation of antagonist activity before opioid analog testing began.
For opioid data analysis, percentage inhibition was calculated using the average tissue contraction height for 1 min preceding the addition of the agonist divided by the contraction height 3 min after exposure to the dose of agonist. […] IC50 and Emax estimates were determined by computerized nonlinear least-squares analysis (the pharmacological statistics package FlashCalc: Dr. Michael Ossipov, University of Arizona, Tucson, Ariz.). […] A50 values represent the mean of not less than 4 tissues. A50 and Emax estimates were determined by computerized nonlinear least-squares analysis (FlashCalc).

rat NK1 (rNK1) receptor = target: T1, rat NK1 (rNK1) receptor (Rattus norvegicus, UniProt P14600); assay: Radioligand competition binding, [3H]substance P, rNK1/CHO membranes; conditions: for IC50: LogIC50, rNK1, [3H]Substance P, logarithm of IC50 (negative); for Ki(hNK1)/Ki(rNK1): species ratio
T1 construct: expressed in transfected cells; host or cells: CHO (rNK-1/CHO cell line from Dr. James Krause)
T1 sequence (P14600 whole entry): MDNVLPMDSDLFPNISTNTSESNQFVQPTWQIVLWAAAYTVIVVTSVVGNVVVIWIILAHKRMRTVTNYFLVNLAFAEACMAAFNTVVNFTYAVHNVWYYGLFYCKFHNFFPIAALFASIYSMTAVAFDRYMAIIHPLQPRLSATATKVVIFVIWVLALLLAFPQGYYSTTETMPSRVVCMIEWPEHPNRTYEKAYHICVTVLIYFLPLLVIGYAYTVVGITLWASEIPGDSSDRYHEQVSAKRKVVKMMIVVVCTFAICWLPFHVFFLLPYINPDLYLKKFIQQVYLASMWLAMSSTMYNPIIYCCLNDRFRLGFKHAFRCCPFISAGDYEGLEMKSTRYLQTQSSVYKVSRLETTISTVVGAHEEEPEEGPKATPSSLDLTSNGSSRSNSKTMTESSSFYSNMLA

[1] = target: T2, human δ opioid receptors (hDOR) (Homo sapiens, UniProt P41143); assay: [35S]GTP-γ-S binding assay, hDOR; type: biochemical
T2 construct: expressed in transfected cells; host or cells: HN9.10 neuroblastoma cell line, pCDNA3, neomycin-selected clones
T2 sequence (P41143 whole entry): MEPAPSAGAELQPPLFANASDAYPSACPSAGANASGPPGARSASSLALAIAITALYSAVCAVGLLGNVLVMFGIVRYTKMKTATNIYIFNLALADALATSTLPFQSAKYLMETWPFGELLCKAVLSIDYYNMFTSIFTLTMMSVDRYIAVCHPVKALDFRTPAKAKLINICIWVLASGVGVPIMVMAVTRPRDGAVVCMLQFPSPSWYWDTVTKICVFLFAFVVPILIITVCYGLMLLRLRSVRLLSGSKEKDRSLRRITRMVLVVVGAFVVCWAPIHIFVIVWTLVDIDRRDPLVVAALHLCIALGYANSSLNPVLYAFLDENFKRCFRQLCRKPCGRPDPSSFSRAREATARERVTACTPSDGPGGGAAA

[2] = target: T3, human NK1 receptor (hNK1) (Homo sapiens, UniProt P25103); assay: Radioligand competition binding, [3H]-Substance P, hNK1
T3 construct: expressed in transfected cells
T3 sequence (P25103 whole entry): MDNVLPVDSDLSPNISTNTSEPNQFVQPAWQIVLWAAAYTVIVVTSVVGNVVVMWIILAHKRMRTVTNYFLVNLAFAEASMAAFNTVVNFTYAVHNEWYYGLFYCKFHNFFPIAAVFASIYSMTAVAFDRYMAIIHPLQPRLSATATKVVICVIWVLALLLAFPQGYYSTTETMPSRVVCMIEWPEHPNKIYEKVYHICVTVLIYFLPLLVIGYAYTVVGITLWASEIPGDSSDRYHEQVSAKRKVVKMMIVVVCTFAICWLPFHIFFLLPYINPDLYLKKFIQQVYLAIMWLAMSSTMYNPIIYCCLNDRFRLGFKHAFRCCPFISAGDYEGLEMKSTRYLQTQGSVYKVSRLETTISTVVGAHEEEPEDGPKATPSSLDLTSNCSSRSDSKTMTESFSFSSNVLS

[3] = target: T4, rat μ opioid receptors (rMOR) (Rattus norvegicus, UniProt P33535); assay: biochemical; type: biochemical
T4 construct: expressed in transfected cells; host or cells: HN9.10 neuroblastoma cell line, pCDNA3, neomycin-selected clones
T4 sequence (P33535 whole entry): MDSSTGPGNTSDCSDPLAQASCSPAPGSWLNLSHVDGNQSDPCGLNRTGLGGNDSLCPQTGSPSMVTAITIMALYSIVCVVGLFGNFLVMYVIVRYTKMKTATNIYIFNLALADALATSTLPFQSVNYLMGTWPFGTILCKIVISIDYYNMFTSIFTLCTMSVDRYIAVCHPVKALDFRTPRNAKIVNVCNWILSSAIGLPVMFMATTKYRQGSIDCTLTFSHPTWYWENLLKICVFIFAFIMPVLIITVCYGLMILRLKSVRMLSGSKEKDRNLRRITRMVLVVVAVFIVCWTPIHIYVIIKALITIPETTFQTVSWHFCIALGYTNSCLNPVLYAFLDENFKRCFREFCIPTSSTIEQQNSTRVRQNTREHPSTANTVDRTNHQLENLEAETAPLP

[4] = target: T4, rat μ opioid receptors (rMOR); assay: Radioligand competition binding, [3H]DAMGO, rMOR membranes; conditions: for Ki(μ)/Ki(δ): Table 20, ratio rMOR Ki / hDOR Ki
δ opioid receptors (MVD) = target: T5, δ opioid receptors (MVD) (Mus musculus, UniProt P32300); assay: Mouse isolated vas deferens (MVD) assay, opioid agonist
T5 construct: from tissue; host or cells: mouse (ICR) isolated vas deferens
T5 sequence (P32300 whole entry): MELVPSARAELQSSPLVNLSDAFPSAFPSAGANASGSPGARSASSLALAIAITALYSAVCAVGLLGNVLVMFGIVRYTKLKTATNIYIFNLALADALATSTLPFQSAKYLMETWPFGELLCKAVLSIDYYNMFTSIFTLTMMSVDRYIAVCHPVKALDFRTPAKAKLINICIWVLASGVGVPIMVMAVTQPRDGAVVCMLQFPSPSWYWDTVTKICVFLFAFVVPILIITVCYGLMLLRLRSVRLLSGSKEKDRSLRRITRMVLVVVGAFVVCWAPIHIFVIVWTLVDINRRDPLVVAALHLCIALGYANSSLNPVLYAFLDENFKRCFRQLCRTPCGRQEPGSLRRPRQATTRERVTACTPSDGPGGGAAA

[5] = target: T2, human δ opioid receptors (hDOR); assay: Radioligand competition binding, [3H]DPDPE, hDOR membranes
[6] = In vitro stability in rat plasma at 37° C.; type: in vitro ADME; conditions: rat, rat plasma, read-out: half life (T1/2) in rat plasma (converted)
Protocol: The derivative compounds were tested for their metabolite stability. The compounds were incubated in rat plasma at 37° C., and aliquots were withdrawn at various time points and analyzed by HPLC to determine the concentration of remaining compound derivatives (FIGS. 15-16, 36, and 47-48).
In Vitro Stability of compound derivatives in Rat Plasm (Yamamoto, 2007, J. Am. Chem. Soc. submitted). Stock solution of compounds (50 mg/mL in DMSO) were diluted 1000-fold into rat plasma (Lot 24927, Pel-Freez Biologicals, Rogers, Ak.) to result in an incubation concentration of 50 μg/mL. All samples were incubated at 37° C. for 6 h, and 200 μL of aliquots were withdrawn at 1 h, 2 h, 4 h and 6 h. […] The samples were run in triplicate. Discussion.

[7] = target: T6, Substance P receptors (guinea pig NK1) (Cavia porcellus, UniProt P30547); assay: Guinea pig isolated ileum (GPI) assay with substance P stimulation in presence of 1 μM naloxone; conditions: for Kb: Substance P antagonist, GPI, Ke (nM), Table 22; for GPI/LMMP SP Agonist (IC50; nM): Table 39
T6 construct: from tissue; host or cells: guinea pig (Hartley) ileum LMMP, 1 μM naloxone present
T6 sequence (P30547 whole entry): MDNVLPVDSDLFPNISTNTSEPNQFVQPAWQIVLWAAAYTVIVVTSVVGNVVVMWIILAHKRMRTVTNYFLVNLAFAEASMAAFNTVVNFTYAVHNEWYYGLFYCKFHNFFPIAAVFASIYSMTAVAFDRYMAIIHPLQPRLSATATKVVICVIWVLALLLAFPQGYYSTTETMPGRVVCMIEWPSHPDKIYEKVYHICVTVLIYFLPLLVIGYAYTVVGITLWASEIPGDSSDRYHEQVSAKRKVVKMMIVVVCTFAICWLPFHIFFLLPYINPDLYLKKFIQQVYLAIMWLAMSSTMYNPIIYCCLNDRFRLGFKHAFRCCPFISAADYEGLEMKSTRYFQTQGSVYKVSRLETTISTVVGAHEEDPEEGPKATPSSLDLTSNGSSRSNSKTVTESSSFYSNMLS
Protocol: Testing stopped at 1 mM concentrations of the test compound.
Analysis of GPI and MVD assays. For opioid data analysis, percentage inhibition was calculated using the average tissue contraction height for 1 min preceding the addition of the agonist divided by the contraction height 3 min after exposure to the dose of agonist. […] IC50 and Emax estimates were determined by computerized nonlinear least-squares analysis (the pharmacological statistics package FlashCalc: Dr. Michael Ossipov, University of Arizona, Tucson, Ariz.). […] A50 values represent the mean of not less than 4 tissues. A50 and Emax estimates were determined by computerized nonlinear least-squares analysis (FlashCalc).

[8] = Table 39, read-out: GPI/LMMP opioid(mu) agonist (IC50; nM)
[9] = Table 39, read-out: Affinity rNK1 (Ki; nM)
[10] = Table 21, HN9.10 cell, read-out: EC50 (nM), hDOR
[11] = Table 21, net total bound/basal binding × 100, read-out: Emax (%), hDOR
[12] = Table 39, read-out: GTP binding hDOR EC50
[13] = Table 39, read-out: GTP binding hDOR Emax
[14] = net total bound/basal binding × 100, read-out: Emax, hDOR, [35S]GTP-γ-S binding
[15] = read-out: GTP binding rMOR EC50
[16] = read-out: GTP binding rMOR Emax
[17] = Table 39, read-out: MVD opioid(delta) agonist (IC50; nM)
[18] = in the presence of 1 μM naloxone
[19] = Table 21, net total bound/basal binding × 100, read-out: Emax (%), rMOR
[20] = Table 39, read-out: GTP binding rMOR EC50
[21] = Table 39, read-out: GTP binding rMOR Emax
[22] = net total bound/basal binding × 100, read-out: Emax, rMOR, [35S]GTP-γ-S binding
[23] = electrically stimulated isolated tissue, read-out: MVD (δ), IC50

Compound	IC50 (μ opioid receptors (GPI); [8])	IC50 (rat NK1 (rNK1) receptor; Table 20, CHO cell membranes)	Ki(hNK1)/Ki(rNK1) (rat NK1 (rNK1) receptor; Table 20)	Ki (rat NK1 (rNK1) receptor; [9])	EC50 [1, 10]	Emax [1, 11]	EC50 [1, 12]	Emax [1, 13]	Emax [1, 14]	IC50 [2]	Ki ([2]; read-out: Ki, hNK1)	EC50 ([3]; LogEC50, rMOR)	Emax ([3]; read-out: Emax (%), rMOR)	EC50 [3, 15]	Emax [3, 16]	IC50 [4]	Ki ([4]; read-out: Ki, rMOR, [3H]DAMGO)	IC50 [5]	half-life at 50 μg/mL [6]	IC50 (δ opioid receptors (MVD); [23])	also measured
CCCC[C@@H]1NC(=O)[C@H](Cc2ccccc2)NC(=O)CNC(=O)[C@H](NC(=O)[C@@H](N)Cc2ccc(O)cc2)CSSC[C@@H](C(=O)N[C@@H](Cc2c[nH]c3ccccc23)C(=O)NCc2cc(C(F)(F)F)cc(C(F)(F)F)c2)NC(=O)[C@@H]2CCCN2C1=O [TY035, [D-Cys^2, Cys^7]TY027] (HELM PEPTIDE1{Y.[dC].G.F.[Nle].P.C.W.[FC(F)(F)c1cc(CN[*:1])cc(C(F)(F)F)c1]}$PEPTIDE1,PEPTIDE1,2:R3-7:R3$$$V2.0; N-terminus assumed)	1010 nM	100 nM	30	30 nM	0.02 nM	11%	0.02 nM	11%	< 20%	0.2 nM	0.1 nM	39.8 nM	41%	36 nM	39%	158 nM	79 nM	2.51 nM	> 6 h	–	IC50 (μ opioid receptors (GPI); Table 22, electrically stimulated isolated tissue, read-out: Opioid agonist GPI (μ), IC50): 1000 ± 200 nM; Ki (rat NK1 (rNK1) receptor; read-out: Ki (nM), rNK1, [3H]Substance P, Table 20, CHO cell membranes): 30 nM; EC50 ([1]; Table 21, logarithm of EC50 (negative), HN9.10 cell, read-out: LogEC50, hDOR (converted)): 0.0158 nM; EC50 ([3]; read-out: EC50 (nM), rMOR): 36 nM; Ki(μ)/Ki(δ) [4]: 61; IC50 (δ opioid receptors (MVD); Table 22, electrically stimulated isolated tissue, read-out: Opioid agonist MVD (δ), IC50): 85 ± 18 nM; IC50 (δ opioid receptors (MVD); [17]): 84.7 nM; Ki ([5]; read-out: Ki, hDOR, [3H]DPDPE): 1.3 nM; Kb [7, 18]: 2.2 ± 0.6 nM; GPI/LMMP SP Agonist (IC50; nM) ([7]; at 30 nM): none
CC(C)C[C@H](NC(=O)[C@@H]1CCCN1C(=O)[C@H]1CSSC[C@@H](NC(=O)[C@@H](N)Cc2ccc(O)cc2)C(=O)NCC(=O)N[C@@H](Cc2ccccc2)C(=O)N1)C(=O)N[C@@H](Cc1c[nH]c2ccccc12)C(=O)NCc1cc(C(F)(F)F)cc(C(F)(F)F)c1 [TY037, [D-Cys^2, D-Cys^5]TY027]	284 nM	126 nM	–	45.5 nM	14 nM	–	98.2 nM	26%	–	–	–	–	–	–	–	126 nM	52 nM	15.8 nM	3.7 h	8.3 nM	IC50 (μ opioid receptors (GPI); electrically stimulated isolated tissue, read-out: GPI (μ), IC50): 280 nM; Emax [3, 19]: 12%; EC50 [3, 20]: 52.9 nM; Emax [3, 21]: 8%; Emax [3, 22]: < 20%; Ki ([5]; Table 39, read-out: Affinity hDOR (Ki; nM)): 7.8 nM; Ki ([5]; read-out: Ki (nM), hDOR, [3H]DPDPE, Table 20, HN9.10 cell membranes): 7.8 nM; Substance P antagonist, GPI, Ke [7, 18]: 4.7 nM
CCCC[C@@H]1NC(=O)[C@H](Cc2ccccc2)NC(=O)CNC(=O)[C@H](NC(=O)[C@@H](N)Cc2ccc(O)cc2)CSSC[C@H](C(=O)N[C@@H](Cc2c[nH]c3ccccc23)C(=O)NCc2cc(C(F)(F)F)cc(C(F)(F)F)c2)NC(=O)[C@@H]2CCCN2C1=O [TY038, [D-Cys^2, D-Cys^7]TY027] (HELM PEPTIDE1{Y.[dC].G.F.[Nle].P.[dC].W.[FC(F)(F)c1cc(CN[*:1])cc(C(F)(F)F)c1]}$PEPTIDE1,PEPTIDE1,2:R3-7:R3$$$V2.0; N-terminus assumed)	–	20 nM	28	7.11 nM	–	87%	14 nM	87%	87%	0.501 nM	0.25 nM	20 nM	12%	21.7 nM	11%	1.58 nM	160 nM	126 nM	> 6 h	19 nM	Opioid agonist GPI (μ), % inh. (μ opioid receptors (GPI); Table 22): 3% inh. at 1 uM^d; GPI/LMMP opioid(mu) Antagonist (μ opioid receptors (GPI); Table 39): none; GPI/LMMP opioid(mu) agonist, % at 1 uM (μ opioid receptors (GPI); Table 39): 3% at; agonist effect in the functional assay using GPI (μ opioid receptors (GPI)): nearly no agonist effect; Ki (rat NK1 (rNK1) receptor; read-out: Ki, rNK1): 7.1 nM; Ki [2]: 0.24 nM; Emax ([3]; read-out: Emax, rMOR, [35S]GTP-γ-S binding): < 20%; Ki [4]: 156 nM; Ki(μ)/Ki(δ) [4]: 2.9; IC50 (δ opioid receptors (MVD); [17]): 18.9 nM; Ki [5]: 55.5 nM; Kb [7, 18]: 12 ± 1.4 nM; GPI/LMMP SP Agonist (IC50; nM) ([7]; at 100 nM): none
CC(C)C[C@H](NC(=O)[C@@H]1CCCN1C(=O)[C@@H]1CSSC[C@@H](NC(=O)[C@@H](N)Cc2ccc(O)cc2)C(=O)NCC(=O)N[C@@H](Cc2ccccc2)C(=O)N1)C(=O)N[C@@H](Cc1c[nH]c2ccccc12)C(=O)NCc1cc(C(F)(F)F)cc(C(F)(F)F)c1 [TY039]	–	1580 nM	–	–	0.9 nM	37%	50.9 nM	37%	–	–	–	–	–	–	–	398 nM	200 nM	25.1 nM	> 6 h	73 nM	Opioid agonist GPI (μ), % inh. (μ opioid receptors (GPI); Table 22): 10% inh. at 1 uM^d; GPI/LMMP opioid(mu) Antagonist (μ opioid receptors (GPI); Table 39): none; GPI/LMMP opioid(mu) agonist, % at 1 uM (μ opioid receptors (GPI); Table 39): 10.1% at; agonist effect in the functional assay using GPI (μ opioid receptors (GPI)): nearly no agonist effect; EC50 ([3]; Table 21, HN9.10 cell, read-out: EC50 (nM), rMOR): 118 nM; EC50 ([3]; Table 21, logarithm of EC50 (negative), HN9.10 cell, read-out: LogEC50, rMOR (converted)): 126 nM; Emax [3, 19]: 17%; EC50 [3, 20]: 118 nM; Emax [3, 21]: 20%; Emax [3, 22]: < 20%

From US8026218B2, “Bifunctional analgesic compounds for opioid receptor agonists and neurokinin-1 receptor antagonists” (The University of Arizona, priority 2006, dated 2011)
